The subject of test [1] is constitutive active colorectal cancer cell (CRC) Wnt pathway. The experiment in a line: HCT116 Super TopFlash cellular reporter assay (constitutive active Wnt pathway). The following applies: Homo sapiens, HCT-116, 36 h, HCT116 TOP reporter cells, luciferase expression, 36 hours incubation, 50 μM to 15 nM. The format is cell-based. The method, then:
In order to discover and characterize small molecules which inhibit the constitutive active colorectal cancer cell (CRC) Wnt pathway, a cellular reporter assay was employed. The corresponding assay cell was generated by transfection of the colorectal cancer cell line HCT116 (ATCC, #CCL-247) with the Super TopFlash vector (Morin, Science 275, 1997, 1787-1790; Molenaar et al., Cell 86 (3), 1996, 391-399). The HCT116 cell line is cultivated at 37° C. and 5% CO2 in DMEM/F-12 (Life Technologies, #11320-074), supplemented with 2 mM glutamine, 20 mM HEPES, 1.4 mM pyruvate, 0.15% Na-bicarbonate and 10% foetal bovine serum (GIBCO, #10270), this cancer cell line is pathophysiological relevant since it carries a deletion of position S45 in the β-catenin gene, leading to constitutive active Wnt signaling. Stable transfectants were generated by cotransfection with pcDNA3 and selection of stable transfected cells with 1 mg/ml G418.
(§1) In a parallel approach, HCT116 cells were cotransfected with the FOP control vector and pcDNA3. The FOP vector is identical to the TOP construct, but it contains instead of functional TCF elements a randomized, non-functional sequence. For this transfection a stable transfected cell line was generated as well.
(§2) In preparation of the assay, the two cell lines were plated 24 hrs before at 10000 cells per well of a 384 micro titre plate (MTP) in 30 μL growth medium. Selective inhibitory activity for small molecules on the mutated Wnt pathway was determined after parallel incubation of both (TOP and FOP) HCT116 reporter cell lines with a compound dilution series from 50 μM to 15 nM in steps of 3.16-fold dilutions in CAFTY buffer (130 mM NaCl, 5 mM KCl, 20 mM HEPES, 1 mM MgCl2, 5 mM NaHCO3, pH 7.4) containing 2 mM Ca^2+ and 0.01% BSA. The compounds were thereby serially prediluted in 100% DMSO and thereafter in addition 50 fold into the CAFTY compound dilution buffer (described above). From this dilution 10 μL were added to the cells in 30 μL growth medium and incubated for 36 hours at 37° C. and 5% CO2. Thereafter luciferase assay buffer (1:1 mixture of luciferase substrate buffer (20 mM Tricine, 2.67 mM MgSO4, 0.1 mM EDTA, 4 mM DTT, 270 μM Coenzyme A, 470 μM Luciferin, 530 μM ATP, ph adjusted to pH 7.8 with a sufficient volume of 5M NaOH) and Triton buffer (30 mL Triton X-100, 115 mL glycerol, 308 mg Dithiothreitol, 4.45 g Na2HPO4.2 H2O, 3.03 g Tris.HCL, ad 1 l H20, pH 7.8) was added as equal volume to the compound solution on the cells to determine luciferase expression as a measure of Wnt signaling activity in a luminometer.
A general note: A reporter such as luciferase makes a cellular process visible.

Test [2] relates to HCT116 FOP control reporter cell line. The test can be described thus: HCT116 FOP control vector reporter assay (non-functional TCF elements). The format is cell-based. The following applies: Homo sapiens, HCT-116, 36 h, HCT116 FOP control reporter cells, luciferase expression, 36 hours incubation, 50 μM to 15 nM; read-out: HCT116 FOPFlash IC50. The method, then: as §1, §2

Structures can show the parent of a compound that is named as a salt. A value given as a limit tells only on which side of the number the result lay.

The IC50 is the concentration needed to halve the response being measured. Regarding `O=C(CN1CCOCC1)Nc1cc(NC(=O)c2ccc(-c3ccccc3)cc2)ccc1O` [Example 84, N-{4-hydroxy-3-[(morpholin-4-ylacetyl)amino]phenyl}biphenyl-4-carboxamide], the IC50 in test [1] is 2030 nM; in test [2], at least 50000 nM.

On to `COCCCOCc1ccc(C(=O)Nc2ccc(-c3ccccc3)cc2)cc1NC(=O)CN1CCOCC1` [Example 87, N-(biphenyl-4-yl)-4-[(3-methoxypropoxy)methyl]-3-[(morpholin-4-ylacetyl)amino]benzamide], for which the IC50 in test [1] was determined as 196 nM; in test [2] it was 34000 nM.

Regarding `NCCCOc1ccc(C(=O)Nc2ccc(-c3ccccc3)cc2)cc1NC(=O)C1(N2CCOCC2)CC1` [Example 89, 4-(3-aminopropoxy)-N-(biphenyl-4-yl)-3-({[1-(morpholin-4-yl)cyclopropyl]carbonyl}amino)benzamide hydrochloride (1:1)], the IC50 in test [1] was 676 nM; in test [2], 20200 nM.

As for `COCCCOc1ccc(C(=O)Nc2ccc(-c3ccccc3)cc2)cc1NC(=O)CN1CCOCC1` [Example 91, N-(biphenyl-4-yl)-4-(3-methoxypropoxy)-3-[(morpholin-4-ylacetyl)amino]benzamide], the IC50 was 262 nM in test [1] and at least 50000 nM in test [2].

For the compound `COCCOc1ccc(C(=O)Nc2ccc(-c3ccccc3)cc2)cc1NC(=O)CN1CCOCC1` [Example 92, N-(biphenyl-4-yl)-4-(2-methoxyethoxy)-3-[(morpholin-4-ylacetyl)amino]benzamide], the half-inhibitory concentration (IC50) is 448 nM in test [1] and at least 50000 nM in test [2].

With `O=C(CN1CCOCC1)Nc1cc(C(=O)Nc2ccc(-c3ccccc3)cc2)ccc1OCCO` [Example 93, N-(biphenyl-4-yl)-4-(2-hydroxyethoxy)-3-[(morpholin-4-ylacetyl)amino]benzamide], the values for the IC50 in test [1] and in test [2] were 194 nM and at least 50000 nM, respectively.

Take `CCC(C(=O)Nc1cc(C(=O)Nc2ccc(-c3ccccc3)cc2)ccc1OC)N1CCOCC1` (centres unmarked) [Example 99, N-(biphenyl-4-yl)-4-methoxy-3-{[2-(morpholin-4-yl)butanoyl]amino}benzamide]: the results for the IC50 in test [1] and in test [2] were 380 nM and at least 50000 nM, respectively.

Take `O=C(CN1CCOCC1)Nc1cc(C(=O)Nc2ccc(-c3ccccc3)cc2)ccc1C(=O)NCCCN1CCCC1` [Example 103, N^4-(biphenyl-4-yl)-2-[(morpholin-4-ylacetyl)amino]-N-[3-(pyrrolidin-1-yl)propyl]terephthalamide]: the IC50 in test [1] came to 302 nM; in test [2], 7400 nM.

On to `CN(C)CCCNC(=O)c1ccc(C(=O)Nc2ccc(-c3ccccc3)cc2)cc1NC(=O)CN1CCOCC1` [Example 104, N^4-(biphenyl-4-yl)-N^1-[3-(dimethylamino)propyl]-2-[(morpholin-4-ylacetyl)amino]terephthalamide], for which the IC50 in test [1] stood at 534 nM; in test [2] it was 7400 nM.

Regarding `CN(C)CCNC(=O)c1ccc(C(=O)Nc2ccc(-c3ccccc3)cc2)cc1NC(=O)CN1CCOCC1` [Example 105, formic acid —N^4-(biphenyl-4-yl)-N^1-[2-(dimethylamino)ethyl]-2-[(morpholin-4-ylacetyl)amino]terephthalamide (1:1)], the figures for the IC50 in test [1] and in test [2] were 552 nM and 7800 nM, respectively.

For `C[S+]([O-])c1ccc(C(=O)Nc2ccc(-c3ccccc3)cc2)cc1NC(=O)CN1CCOCC1` (centres unmarked) [Example 110, N-(biphenyl-4-yl)-4-(methylsulfinyl)-3-[(morpholin-4-ylacetyl)amino]benzamide], the half-inhibitory concentration (IC50) came to 366 nM in test [1] and 6500 nM in test [2].

For `CS(=O)(=O)c1ccc(C(=O)Nc2ccc(-c3ccccc3)cc2)cc1NC(=O)CN1CCOCC1` [Example 111, N-(biphenyl-4-yl)-4-(methylsulfonyl)-3-[(morpholin-4-ylacetyl)amino]benzamide], the IC50 is 162 nM in test [1] and at least 50000 nM in test [2].

Regarding `O=C(Nc1ccc(-c2ccccc2)cc1)c1ccc(OC2CC2)c(NC(=O)C2(N3CCOCC3)CC2)c1` [Example 113, N-(biphenyl-4-yl)-4-(cyclopropyloxy)-3-({[1-(morpholin-4-yl)cyclopropyl]carbonyl}amino)benzamide], the figures for the IC50 in test [1] and in test [2] were 159 nM and at least 50000 nM, respectively.

As to `NC(=O)c1ccc(C(=O)Nc2ccc(-c3ccccc3)cc2)cc1NC(=O)CN1CCOCC1` [Example 116, N^4-(Biphenyl-4-yl)-2-[(morpholin-4-ylacetyl)amino]terephthalamide], the results for the IC50 in test [1] and in test [2] were 132 nM and at least 50000 nM, respectively.

For `CC(C)(O)c1ccc(C(=O)Nc2ccc(-c3ccccc3)cc2)cc1NC(=O)CN1CCOCC1` [Example 117, N-(biphenyl-4-yl)-4-(2-hydroxypropan-2-yl)-3-[(morpholin-4-ylacetyl)amino]benzamide], the IC50 in test [1] was 153 nM; in test [2] it was at least 50000 nM.

On to `COc1ccc(NC(=O)c2ccc(-c3ccc(NC(C)=O)cc3)cc2)cc1NC(=O)CN1CCOCC1` [Example 118, 4′-acetamido-N-{4-methoxy-3-[(morpholin-4-ylacetyl)amino]phenyl}biphenyl-4-carboxamide], for which the concentration for half-maximal inhibition (IC50) in test [1] is 960 nM; in test [2] it was at least 50000 nM.

On to `CNc1ccc(-c2ccc(C(=O)Nc3ccc(OC)c(NC(=O)CN4CCOCC4)c3)cc2)cc1` [Example 119, N-{4-methoxy-3-[(morpholin-4-ylacetyl)amino]phenyl}-4′-(methylamino)biphenyl-4-carboxamide], for which the figures for the IC50 in test [1] and in test [2] were 260 nM and at least 50000 nM, respectively.

Turning to `COc1ccc(NC(=O)c2ccc(-c3ccc(CN)cc3)cc2)cc1NC(=O)CN1CCOCC1` [Example 120, 4′-(aminomethyl)-N-{4-methoxy-3-[(morpholin-4-ylacetyl)amino]phenyl}biphenyl-4-carboxamide], the IC50 in test [1] is 755 nM; in test [2], at least 50000 nM.

Turning to `O=C(CN1CCOCC1)Nc1cc(C(=O)Nc2ccc(-c3ccccc3)cc2)ccc1OCCCO` [Example 121, N-(biphenyl-4-yl)-4-(3-hydroxypropoxy)-3-[(morpholin-4-ylacetyl)amino]benzamide], the 50% inhibitory concentration (IC50) in test [1] was 237 nM; in test [2] it was at least 50000 nM.

Consider `NC(=O)COc1ccc(C(=O)Nc2ccc(-c3ccccc3)cc2)cc1NC(=O)CN1CCOCC1` [Example 122, 4-(2-amino-2-oxoethoxy)-N-(biphenyl-4-yl)-3-[(morpholin-4-ylacetyl)amino]benzamide], for which the half-inhibitory concentration (IC50) in test [1] amounted to 338 nM; in test [2], 15500 nM.

Consider `COc1ccc(C(=O)Nc2ccc(-c3cc(F)cc(F)c3)c(F)c2)cc1NC(=O)CN1CCOCC1` [Example 123, 4-methoxy-3-[(morpholin-4-ylacetyl)amino]-N-(2,3′,5′-trifluorobiphenyl-4-yl)benzamide], for which the IC50 was 400 nM in test [1] and at least 50000 nM in test [2].

In the case of `CN1CCN(CC(=O)Nc2cc(C(=O)Nc3ccc(-c4ccccc4)cc3)ccc2CS(C)(=O)=O)CC1` [Example 125, N-(biphenyl-4-yl)-3-{[(4-methylpiperazin-1-yl)acetyl]amino}-4-[(methylsulfonyl)methyl]benzamide], the figures for the IC50 in test [1] and in test [2] were 105 nM and 8900 nM, respectively.

For the compound `CC(=O)NCCCOc1ccc(C(=O)Nc2ccc(-c3ccccc3)cc2)cc1NC(=O)CN1CCOCC1` [Example 126, 4-(3-acetamidopropoxy)-N-(biphenyl-4-yl)-3-[(morpholin-4-ylacetyl)amino]benzamide], the IC50 is 222 nM in test [1] and at least 50000 nM in test [2].

Consider `O=C(CN1CC2CCC(C1)O2)Nc1cc(C(=O)Nc2ccc(-c3ccccc3)cc2)ccc1OC1CC1` [Example 128, N-(biphenyl-4-yl)-4-(cyclopropyloxy)-3-[(8-oxa-3-azabicyclo[3.2.1]oct-3-ylacetyl)amino]benzamide], for which the IC50 in test [1] was 74 nM; in test [2], at least 50000 nM.

On to `COc1ccc(NC(=O)c2ccc(-c3ccccc3)cc2)cc1NC(=O)C1(NC(=O)OC(C)(C)C)CC1` [Example 129, tert-butyl[1-({5-[(biphenyl-4-ylcarbonyl)amino]-2-methoxyphenyl}carbamoyl)cyclopropyl]carbamate], for which the IC50 stood at 195 nM in test [1] and 11000 nM in test [2].
